Results taken from US4632978A, “6-serine, des-19-leucine calcitonin” (Armour Pharmaceutical Corp., priority 1985, dated 1986).
Bridge positions count the residues as written; N and C are the ends. Ends that are not written are not given here.

Columns and labels:
[1] = tested on: serum calcium concentration; assay: Biological assay of calcitonin analogs in vivo: reduction of serum calcium concentration, 2×2 parallel line assay against synthetic salmon calcitonin standard; conditions: rats, subcutaneous injection, blood withdrawn 1 hour later, vs synthetic salmon calcitonin standard
Experimental: Biological Assay Of Calcitonin Analogs In Vivo
The biological potency of Ser^6, des-Leu^19 -salmon calcitonin was determined by comparing the reduction of serum calcium concentration which followed administration by graded doses of Ser^6, des-Leu^19 SCT and synthetic salmon calcitonin standard. Rats were divided into four groups of seven animals, and each group was assigned at random to a dose of standard or test solution. Low and high doses where chosen from the linear portion of the dose-response curve. For the salmon calcitonin standard, the values were 0.7 and 2.1 ng. peptide/100 g. body weight (BW). This dose approximates 3 and 9 MU/100 g. BW. Peptides were given by subcutaneous injection (0.2 ml/100 g. BW) and blood was withdrawn 1 hour later for serum calcium determination. Sera are processed and analyzed within two hours of collection. […]. Results were analyzed by a 2×2 parallel line assay [Gaddum, J. H., J. Pharm. Pharmacol., 5, 345 (1953)]. The standard salmon calcitonin used was independently determined to contain greater than 4,000 IU/mg. Ser^6,des-Leu^19 -SCT assayed at 8400 IU/mg.

[2] = literature values, Monikawa et al.; cited from earlier work

In the case of “6-serine, des-19-leucine-salmon calcitonin [Ser^6,des-Leu^19 -SCT]”, the “biological potency (reduction of serum calcium concentration)” value [1] was 8400 IU/mg.
For “(1,7-α-L-aminosuberic acid)eel calcitonin”, the hypocalcemic potency [2] is given as “about 3400 IU/mg”.
In the case of “eel calcitonin (CSNLSTCVLGKLSQELHKLQTYPRTDVGAGTP-NH2; disulfide 1-7; ends not checked; UniProt P01262 1-32, looked up) [synthetic eel calcitonin, synthetic eel calcitonin from Monikawa et al]”, the hypocalcemic potency [2] is listed as “around 4300 IU/mg”.
